Laboratory results taken from patent US10683293B2, “Optionally fused heterocyclyl-substituted derivatives of pyrimidine useful for the treatment of inflammatory, metabolic, oncologic and autoimmune diseases” (NUEVOLUTION A/S, priority 2014, dated 2020).

Target: T1, human RORγt (Ligand Binding Domain) (Homo sapiens, UniProt P51449)
T1 construct: purchased Crelux (Planegg, Germany) batch no PC5032-1
T1 sequence (P51449 269-508 limits assumed): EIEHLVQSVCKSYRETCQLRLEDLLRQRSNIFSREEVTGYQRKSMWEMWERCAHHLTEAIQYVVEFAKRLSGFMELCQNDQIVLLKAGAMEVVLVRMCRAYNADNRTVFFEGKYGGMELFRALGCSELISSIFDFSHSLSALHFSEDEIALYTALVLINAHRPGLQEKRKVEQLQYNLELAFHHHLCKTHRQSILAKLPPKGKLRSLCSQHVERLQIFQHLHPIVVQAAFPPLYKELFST
Assay: Fluorescence Polarization (FP) Assay
Details: 100 nM human RORγt LBD, 25 nM TAMRA probe, values are activity range bounds
Procedure: The activity of the compounds was evaluated using a Fluorescence Polarization (FP) Assay and, RORγ Reporter assay (also referred to as Gal4 assay). The FP assay is an in vitro assay monitoring binding within the ligand binding pocket. The RORγ and the Th17 assays (another suitable assay) are both cell-based assays monitoring functional activity of the compound assayed.
Fluorescence Polarization (FP) Assay
The total volume was 25 μl, in a black Perkin Elmer OptiPlate. As negative control, 1 μl DMSO was used. […] The probe is a fluorescently labeled (TAMRA) RORγt ligand identified by Nuevolution with a total molecular weight of 910 g/mole as shown in Graph A in FIG. 1.

Q: Which IC50 does the source give for `CCN(Cc1cccc2c1OCO2)c1ncnc(NCc2ccc(CC(N)=O)cc2)c1F` [Example A126, 2-[4-[[[6-[1,3-benzodioxol-4-ylmethyl(ethyl)amino]-5-fluoro-pyrimidin-4-yl]amino]methyl]phenyl]acetamide] here?
A: < 500 nM

Q: `O=C(O)CCNC(=O)CC1(CNc2ncnc(N(Cc3ccc(C(F)(F)F)cc3)C3CC3)c2F)CCOCC1` [Example A155, 3-[[2-[4-[[[6-[cyclopropyl-[[4-(trifluoromethyl)phenyl]methyl]amino]-5-fluoro-pyrimidin-4-yl]amino]methyl]tetrahydropyran-4-yl]acetyl]amino]propanoic acid] was tested. Which IC50 did it give?
A: < 1000 nM

Q: How did the IC50 turn out when `NC(=O)C1CC(CNc2ncnc(N(Cc3ccc(C(F)(F)F)cc3)C3CC3)c2F)C1` (stereo not drawn) [Example A96, 3-[[[6-[cyclopropyl-[[4-(trifluoromethyl)phenyl]methyl]amino]-5-fluoro-pyrimidin-4-yl]amino]methyl]cyclobutane-carboxamide] was run?
A: < 10000 nM

Q: For `N#CNC(=O)c1ccc(CNc2ncnc(N(Cc3ccc(C(F)(F)F)cc3)C3CC3)c2F)cc1` [Example A84, N-cyano-4-[[[6-[cyclopropyl-[[4-(trifluoromethyl)phenyl]methyl]amino]-5-fluoro-pyrimidin-4-yl]amino]methyl]benzamide], which IC50 is on record?
A: < 500 nM

Q: For `CN(Cc1ccc(-n2cccn2)cc1)c1ncnc(NCc2ccc(S(=O)(=O)O)cc2)c1F` [Example A137, 4-[[[5-fluoro-6-[methyl-[(4-pyrazol-1-ylphenyl)methyl]amino]pyrimidin-4-yl]amino]methyl]benzenesulfonic acid], which IC50 is on record?
A: < 500 nM

Q: For `CN(Cc1cccc(-n2cccn2)c1)c1ncnc(NCC2CCOCC2)c1F` [Example A141, 5-fluoro-N6-methyl-N6-[(3-pyrazol-1-ylphenyl)methyl]-N4-(tetrahydropyran-4-ylmethyl)pyrimidine-4,6-diamine], which IC50 is on record?
A: < 2000 nM

Q: For `N#Cc1cccc(CN(c2ncnc(NCc3ccc(CC(N)=O)cc3)c2F)C2CC2)c1` [Example A163, 2-[4-[[[6-[(3-cyanophenyl)methyl-cyclopropyl-amino]-5-fluoro-pyrimidin-4-yl]amino]methyl]phenyl]acetamide], which IC50 is on record?
A: < 500 nM

Q: `COC1CCCCC1CNc1ncnc(N(Cc2ccc(C(F)(F)F)cc2)C2CC2)c1F` (stereo not drawn) [Example A43, N4-cyclopropyl-5-fluoro-N6-[(2-methoxycyclohexyl)methyl]-N4-[[4-(trifluoromethyl)phenyl]methyl] pyrimidine-4,6-diamine] was tested. Which IC50 did it give?
A: < 1000 nM

Q: `CN(C)C(=O)C1(CNc2ncnc(N(Cc3ccc(C(F)(F)F)cc3)C3CC3)c2F)CCCC1` [Example A27, 1-[[[6-[cyclopropyl-[[4-(trifluoromethyl)phenyl]methyl]amino]-5-fluoro-pyrimidin-4-yl]amino]methyl]-N,N-dimethyl-cyclopentanecarboxamide] was tested. Which IC50 did it give?
A: < 1000 nM

Q: `CN(Cc1ccc(-n2cccn2)cc1)c1ncnc(NCC2(CS(C)(=O)=O)CCOCC2)c1F` [Example A133, 5-fluoro-N6-methyl-N4-[[4-(methylsulfonylmethyl)tetrahydro-pyran-4-yl]methyl]-N6-[(4-pyrazol-1-ylphenyl)methyl]pyrimidine-4,6-diamine] was tested. Which IC50 did it give?
A: < 2000 nM

Q: With `CS(=O)(=O)N1CC(CNc2ncnc(N(Cc3ccc(C(F)(F)F)cc3)C3CC3)c2F)C1` [Example A160, N4-cyclopropyl-5-fluoro-N6-[(1-methylsulfonylazetidin-3-yl)methyl]-N4-[[4-(trifluoromethyl)phenyl]methyl] pyrimidine-4,6-diamine] as the compound, how does the IC50 read?
A: < 500 nM

Q: With `O=S1(=O)CCC(CNc2ncnc(N(Cc3ccc(C(F)(F)F)cc3)C3CC3)c2F)CC1` [Example A34, N6-cyclopropyl-N4-[(1,1-dioxothian-4-yl)methyl]-5-fluoro-N6-[[4-(trifluoromethyl)phenyl]methyl] pyrimidine-4,6-diamine] as the compound, how does the IC50 read?
A: < 500 nM

Q: With `CN(Cc1cccc(-n2cccn2)c1)c1ncnc(NCC2(O)CCS(=O)(=O)CC2)c1F` [Example A140, 4-[[[5-fluoro-6-[methyl-[(3-pyrazol-1-ylphenyl)methyl]amino]pyrimidin-4-yl]amino]methyl]-1,1-dioxo-thian-4-ol] as the compound, how does the IC50 read?
A: < 10000 nM

Q: How did the IC50 turn out when `COc1cc(CN(c2ncnc(NCc3ccc(CC(N)=O)cc3)c2F)C2CC2)ccc1Cl` [Example A156, 2-[4-[[[6-[(4-chloro-3-methoxy-phenyl)methyl-cyclopropyl-amino]-5-fluoro-pyrimidin-4-yl]amino]methyl]phenyl]acetamide] was run?
A: < 500 nM

Q: How did the IC50 turn out when `N#Cc1ccc(CN(c2ncnc(NCc3ccc(CC(N)=O)cc3)c2F)C2CC2)cn1` [Example A93, 2-[4-[[[6-[(6-cyano-3-pyridyl)methyl-cyclopropyl-amino]-5-fluoro-pyrimidin-4-yl]amino]methyl]phenyl]acetamide] was run?
A: < 2000 nM

Q: How did the IC50 turn out when `CS(=O)(=O)N1CCC(O)(CNc2ncnc(N(Cc3ccc(C(F)(F)F)cc3)C3CC3)c2F)CC1` [Example A69, 4-[[[6-[cyclopropyl-[[4-(trifluoromethyl)phenyl]methyl]amino]-5-fluoro-pyrimidin-4-yl]amino]methyl]-1-methylsulfonyl-piperidin-4-ol] was run?
A: < 500 nM

Q: Which IC50 does the source give for `OCCC1(CNc2ncnc(N(Cc3ccc(C(F)(F)F)cc3)C3CC3)c2F)CCOCC1` [Example A22, 2-[4-[[[6-[cyclopropyl-[[4-(trifluoromethyl)phenyl]methyl]amino]-5-fluoro-pyrimidin-4-yl]amino]methyl]tetrahydropyran-4-yl]ethanol] here?
A: < 500 nM

Q: How did the IC50 turn out when `CC1CCC(CNc2ncnc(N(Cc3ccc(C(F)(F)F)cc3)C3CC3)c2F)CC1` (stereo not drawn) [Example A32, N6-cyclopropyl-5-fluoro-N4-[(4-methylcyclohexyl)methyl]-N6-[[4-(trifluoromethyl)phenyl]methyl] pyrimidine-4,6-diamine] was run?
A: < 500 nM

Q: For `Cn1cc(CN(c2ncnc(NCc3ccc(CC(N)=O)cc3)c2F)C2CC2)cn1` [Example A119, 2-[4-[[[6-[cyclopropyl-[(1-methylpyrazol-4-yl)methyl]amino]-5-fluoro-pyrimidin-4-yl]amino]methyl]phenyl]acetamide], which IC50 is on record?
A: < 2000 nM

Q: `NC(=O)Cc1ccc(CNc2ncnc(N(Cc3cccc(-n4cncn4)c3)C3CC3)c2F)cc1` [Example A161, 2-[4-[[[6-[cyclopropyl-[[3-(1,2,4-triazol-1-yl)phenyl]methyl]amino]-5-fluoro-pyrimidin-4-yl]amino]methyl]phenyl]acetamide] was tested. Which IC50 did it give?
A: < 500 nM

Q: For `Fc1c(NCC2CCCS2)ncnc1N(Cc1ccc(C(F)(F)F)cc1)C1CC1` (stereo not drawn) [Example A28, N6-cyclopropyl-5-fluoro-N4-(tetrahydrothiophen-2-ylmethyl)-N6-[[4-(trifluoromethyl)phenyl]methyl] pyrimidine-4,6-diamine], which IC50 is on record?
A: < 1000 nM

Q: For `CCN(Cc1cn(CC)nc1C)c1ncnc(NCc2ccc(CC(N)=O)cc2)c1F` [Example A123, 2-[4-[[[6-[ethyl-[(1-ethyl-3-methyl-pyrazol-4-yl)methyl]amino]-5-fluoro-pyrimidin-4-yl]amino]methyl]phenyl]acetamide], which IC50 is on record?
A: < 10000 nM

Q: For `Fc1c(NCc2ccncc2)ncnc1N(Cc1ccc(C(F)(F)F)cc1)C1CC1` [Example A41, N4-cyclopropyl-5-fluoro-N6-(4-pyridylmethyl)-N4-[[4-(trifluoromethyl)phenyl]methyl] pyrimidine-4,6-diamine], which IC50 is on record?
A: < 500 nM

Q: How did the IC50 turn out when `Cc1cc(CN(c2ncnc(NCC3CCN(S(C)(=O)=O)CC3)c2F)C2CCCCC2)n(C)n1` [Example A180, N6-cyclohexyl-N6-[(2,5-dimethylpyrazol-3-yl)methyl]-5-fluoro-N4-[(1-methylsulfonyl-4-piperidyl)methyl]pyrimidine-4,6-diamine] was run?
A: < 10000 nM
